From patent publication US20040116336A1, “Peptide derivatives” (priority 2002, published 2004)
pEC50, pIC50: −log10 of the molar value. Starred links: 1 amine or outer side, 2 acyl side, 3 side chain; linkers in the order of their positions; H or OH if unused. Non-standard residues stand in square brackets, D forms with d. Residues, ends and D or L forms follow the SMILES beside them. Phe(4-Cl) = N[C@@H](Cc1ccc(Cl)cc1)C(=O)O; Adipoyl = O=C(CCCCC(=O)[*:2])[*:1]; Lys(Me2) = CN(C)CCCC[C@H](N)C(=O)O; Cha = N[C@@H](CC1CCCCC1)C(=O)O; Dap = NC[C@H](N)C(=O)O

Tests used:
APJ [1] = biological target: T1, APJ (Homo sapiens, UniProt P35414); assay: Inhibitory activity on forskolin-stimulated cAMP production in CHO-A10 clone 6 cells; assay type: cell-based; conditions: read-out: EC50
T1 construct: expressed in transfected cells; host or cells: CHO (CHO-A10; clone 6 for the cAMP assay)
T1 sequence (P35414 1-380): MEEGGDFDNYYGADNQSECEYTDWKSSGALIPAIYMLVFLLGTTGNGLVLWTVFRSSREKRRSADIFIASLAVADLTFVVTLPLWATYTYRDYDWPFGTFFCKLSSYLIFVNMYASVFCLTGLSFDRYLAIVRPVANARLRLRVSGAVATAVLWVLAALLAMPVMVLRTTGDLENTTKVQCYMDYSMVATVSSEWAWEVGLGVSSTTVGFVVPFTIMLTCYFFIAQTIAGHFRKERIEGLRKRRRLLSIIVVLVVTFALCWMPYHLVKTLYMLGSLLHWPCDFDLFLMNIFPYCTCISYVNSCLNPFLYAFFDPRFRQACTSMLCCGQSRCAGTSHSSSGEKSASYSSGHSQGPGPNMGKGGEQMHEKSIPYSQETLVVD
Description: Measurement of an Inhibitory Activity on Forskolin-Stimulated cAMP Production
Hanks' balanced salt solution (HBSS) containing 0.2 mM 3-isobutyl-1-methylxanthine (IBMX) and 0.05% bovine serum albumin was prepared as an assay buffer, and each well was washed twice with 500 μl assay buffer and pre-incubated at 37° C. for 30 minutes. Further, each well was washed once with 500 μl assay buffer, and a sample dissolved in the assay buffer containing 1 μM forskolin was added at a volume of 500 μl/well and incubated at 37° C. for 30 minutes. Wells incubated with the assay buffer not containing forskolin were prepared in the same manner in order to determine the basal level of cellular cAMP production, while wells incubated with the assay buffer containing forskolin were also prepared in order to determine the maximum level of cAMP production stimulated with forskolin. After incubation was finished, each well was washed once with 500 μl assay buffer, and 500 μl lysis buffer 1B attached to a cAMP EIA system from Amersham was added to each well, to extract cAMP. According to the protocol of the kit, 100 μl of each extract was used to determine the level of cAMP. For the inhibitory activity of the sample on cAMP production, the difference (inhibited cAMP production) between the maximum level and the level of cAMP in the sample-containing wells was determined, and the inhibitory activity was expressed as percentage relative to the increased level of cAMP production stimulated with forskolin (that is, the difference between the maximum level and basal level), and from this dose-reaction curve, the EC50 was determined.

APJ [2] = biological target: T1, APJ; assay: Receptor binding assay-2 (compound in Reference Example 2 used); conditions: compound in Reference Example 2 used as ligand; read-out: IC50
Description: This product was mixed with an equal volume of an assay buffer (50 mM Tris-HCl/pH 7.5, 5 mM EDTA, 0.5 mM PMSF, 20 μg/ml leupeptin, 0.1 μg/ml pepstatin A, 4 μg/ml E-64 (Peptide Research Laboratory, Co.), 0.1% bovine serum albumin) and stored at −30° C. before use.
CHO-A10 cells were cultured, recovered with PBS containing 5 mM EDTA from a culture vessel, and suspended in the above-mentioned assay buffer not containing bovine serum albumin. The cells were homogenized 3 times at 12,000 rpm for 15 seconds by a Polytron homogenizer (manufactured by Kinematica Inc.) and then centrifuged (1000×g, 4° C., 10 minutes), and the supernatant was recovered. The precipitates were subjected again to the same procedure as above, and the respective supernatants were combined and centrifuged at 100,000×g, 4° C. for 1 hour, to recover precipitates (membrane fraction). The membrane fraction was suspended again in a small amount of the buffer, homogenized with a Teflon homogenizer and stored at −80° C. before use.
Binding assay was carried out under the following conditions. […] Measurement of non-specific binding was carried out using a well containing 1 μM unlabeled compound in place of the test sample. After the incubation was finished, a cell harvester (Packard) adapted to 96 wells and a filter unit (GF/C, Packard) were used for separation thereby capturing the membrane fraction on the filter. After the filter was sufficiently dried, Microcinti 0 (Packard) was added thereto, and using Top Count (Packard), the amount of the labeled material captured together with the membrane fraction on the filter was measured.

Compound	pEC50 (APJ [1])	pIC50 (APJ [2])
CSCC[C@H](NC(=O)[C@@H]1CCCN1C(=O)CNC(=O)[C@H](CCCCN)NC(=O)[C@H](Cc1c[nH]cn1)NC(=O)[C@H](CO)NC(=O)[C@H](CC(C)C)NC(=O)[C@H](CCCNC(=N)N)NC(=O)[C@@H]1CCCN1C(=O)[C@H](CCCNC(=N)N)NC(=O)[C@H](CCCNC(=N)N)NC(=O)[C@H](CCCNC(=N)N)NC(=O)[C@@H](N)CCCNC(=N)N)C(=O)N1CCC[C@H]1C(=O)N[C@@H](Cc1ccccc1)C(=O)O [Compound in Ex. 22]	9.49	9.92
CC(C)C[C@H](NC(=O)[C@H](CCCNC(=N)N)NC(=O)[C@@H]1CCCN1C(=O)[C@H](CCCNC(=N)N)NC(=O)[C@H](CCC(N)=O)NC(=O)[C@H](CCCNC(=N)N)NC(=O)[C@@H](N)CCCNC(=N)N)C(=O)N[C@@H](CO)C(=O)N[C@@H](C)C(=O)N[C@@H](CCCNC(=N)N)C(=O)NCC(=O)N1CCC[C@H]1C(=O)O [Compound in Ex. 19]	9.59	10.15
C[C@H](NC(=O)[C@H](CCCNC(=N)N)NC(=O)[C@@H]1CCCN1C(=O)[C@@H](N)CCCNC(=N)N)C(=O)N[C@@H](CO)C(=O)N[C@@H](Cc1c[nH]cn1)C(=O)N[C@@H](CCCCN)C(=O)NCC(=O)N1CCC[C@H]1C(=O)N[C@@H](CC1CCCCC1)C(=O)N1CCC[C@H]1C(=O)N[C@@H](Cc1ccc(Cl)cc1)C(=O)O [Compound in Ex. 57] (H-RPRASHKGP[Cha]P[Phe(4-Cl)]-OH; N-terminus and C-terminus assumed)	9.28	9.77
CSCC[C@H](NC(=O)[C@@H]1CCCN1C(=O)CNC(=O)[C@H](CCCCN)NC(=O)[C@H](Cc1c[nH]cn1)NC(=O)[C@H](CO)NC(=O)[C@H](CC(C)C)NC(=O)[C@H](CCCNC(=N)N)NC(=O)[C@@H]1CCCN1C(=O)[C@@H](N)CCCNC(=N)N)C(=O)N[C@@H](CC1CCCCC1)C(=O)O [Compound in Ex. 36] (H-RPRLSHKGPM[Cha]-OH; N-terminus and C-terminus assumed)	9.66	9.29
CC(C)C[C@H](NC(=O)[C@H](CCCNC(=N)N)NC(=O)[C@@H]1CCCN1C(=O)[C@@H](N)CCCNC(=N)N)C(=O)N[C@@H](Cc1ccccc1)C(=O)N[C@@H](Cc1c[nH]cn1)C(=O)N[C@@H](CCCCN)C(=O)NCC(=O)N1CCC[C@H]1C(=O)N[C@@H](CC1CCCCC1)C(=O)N[C@@H](Cc1ccc(Cl)cc1)C(=O)O [Compound in Ex. 37] (H-RPRLFHKGP[Cha][Phe(4-Cl)]-OH; N-terminus and C-terminus assumed)	9.37	9.27
CSCC[C@H](NC(=O)[C@@H]1CCCN1C(=O)CNC(=O)[C@H](CCCNC(=N)N)NC(=O)[C@H](C)NC(=O)[C@H](CO)NC(=O)[C@H](CC(C)C)NC(=O)[C@H](CCCNC(=N)N)NC(=O)[C@@H]1CCCN1C(=O)[C@H](CCCNC(=N)N)NC(=O)[C@H](CCC(N)=O)NC(=O)[C@H](CCCNC(=N)N)NC(=O)[C@@H](N)CCCNC(=N)N)C(=O)N1CCC[C@H]1C(=O)N[C@@H](Cc1ccccc1)C(=O)O [Compound in Ex. 17]	9.41	10.44
CSCC[C@H](NC(=O)[C@@H]1CCCN1C(=O)CNC(=O)[C@H](CCCCN)NC(=O)[C@H](C)NC(=O)[C@H](CO)NC(=O)[C@H](CC(C)C)NC(=O)[C@H](CCCNC(=N)N)NC(=O)[C@@H]1CCCN1C(=O)[C@H](CCCNC(=N)N)NC(=O)[C@@H]1CCC(=O)N1)C(=O)N1CCC[C@H]1C(=O)N[C@@H](Cc1ccccc1)C(=O)O [Compound in Ex. 29]	9.66	9.68
CC(C)C[C@H](NC(=O)[C@H](CCCNC(=N)N)NC(=O)[C@@H]1CCCN1C(=O)[C@H](CCCNC(=N)N)NC(=O)[C@H](CCC(N)=O)NC(=O)[C@H](CCCNC(=N)N)NC(=O)[C@@H](N)CCCNC(=N)N)C(=O)N[C@@H](CO)C(=O)N[C@@H](Cc1c[nH]cn1)C(=O)N[C@@H](CCCCN)C(=O)NCC(=O)N1CCC[C@H]1C(=O)N[C@@H](CC[S+](C)[O-])C(=O)O (stereo partly shown) [Compound in Ex. 20]	9.32	9.21

Now from value to compound:

pEC50 (APJ [1])	pIC50 (APJ [2])	Compound
9.39	9.82	CC(C)C[C@H](NC(=O)[C@H](C)NC(=O)[C@@H]1CCCN1C(=O)[C@@H](N)CCCNC(=N)N)C(=O)N[C@@H](CO)C(=O)N[C@@H](Cc1c[nH]cn1)C(=O)N[C@@H](CCCCN)C(=O)NCC(=O)N1CCC[C@H]1C(=O)N[C@@H](CC1CCCCC1)C(=O)N1CCC[C@H]1C(=O)N[C@@H](Cc1ccc(Cl)cc1)C(=O)O [Compound in Ex. 58] (H-RPALSHKGP[Cha]P[Phe(4-Cl)]-OH; N-terminus and C-terminus assumed)
9.48	10.13	CSCC[C@H](NC(=O)[C@@H]1CCCN1C(=O)CNC(=O)[C@H](CCCNC(=N)N)NC(=O)[C@H](C)NC(=O)[C@H](CO)NC(=O)[C@H](CC(C)C)NC(=O)[C@H](CCCCN(C)C)NC(=O)[C@@H]1CCCN1C(=O)[C@@H](N)CCCNC(=N)N)C(=O)N1CCC[C@H]1C(=O)N[C@@H](Cc1ccccc1)C(=O)O [Compound in Ex. 63] (H-RP[Lys(Me2)]LSARGPMPF-OH; N-terminus and C-terminus assumed)
9.16	9.96	CC(=O)NC[C@H](NC(=O)[C@H](CO)NC(=O)[C@H](CC(C)C)NC(=O)[C@H](CCCNC(=N)N)NC(=O)[C@@H]1CCCN1C(=O)[C@@H](N)CCCNC(=N)N)C(=O)N[C@@H](CCCNC(=N)N)C(=O)NCC(=O)N1CCC[C@H]1C(=O)N[C@@H](CC1CCCCC1)C(=O)N1CCC[C@H]1C(=O)N[C@@H](Cc1ccc(Cl)cc1)C(=O)O [Compound in Ex. 66, Arg-Pro-Arg-Leu-Ser-Dap(Ac)-Arg-Gly-Pro-Cha-Pro-Phe(Cl)] (H-RPRLS[Dap](Ac)RGP[Cha]P[Phe(4-Cl)]-OH)
9.64	9.85	CC(C)C[C@H](NC(=O)[C@H](CCCNC(=N)N)NC(=O)[C@@H]1CCCN1C(=O)[C@H](CCCNC(=N)N)NC(=O)[C@H](CCC(N)=O)NC(=O)[C@H](CCCNC(=N)N)NC(=O)[C@@H](N)CCCNC(=N)N)C(=O)N[C@@H](CO)C(=O)N[C@@H](C)C(=O)N[C@@H](CCCNC(=N)N)C(=O)NCC(=O)NCC(=O)N[C@@H](CC1CCCCC1)C(=O)O [Compound in Ex. 62] (H-RRQRPRLSARGG[Cha]-OH; N-terminus and C-terminus assumed)
9.28	9.59	CC(C)C[C@H](NC(=O)[C@H](CCCNC(=N)N)NC(=O)[C@@H]1CCCN1C(=O)[C@@H](N)CCCNC(=N)N)C(=O)N[C@@H](CO)C(=O)N[C@@H](CN)C(=O)N[C@@H](CCCNC(=N)N)C(=O)NCC(=O)N1CCC[C@H]1C(=O)N[C@@H](CC1CCCCC1)C(=O)N1CCC[C@H]1C(=O)N[C@@H](Cc1ccc(Cl)cc1)C(=O)O [Compound in Ex. 65, Arg-Pro-Arg-Leu-Ser-Dap-Arg-Gly-Pro-Cha-Pro-Phe(Cl)] (H-RPRLS[Dap]RGP[Cha]P[Phe(4-Cl)]-OH)
9.38	9.89	CC(C)C[C@H](NC(=O)[C@H](CCCNC(=N)N)NC(=O)[C@@H]1CCCN1C(=O)[C@@H](N)CCCNC(=N)N)C(=O)N[C@@H](CO)C(=O)N[C@@H](CNC(=O)CCCCC(=O)O)C(=O)N[C@@H](CCCNC(=N)N)C(=O)NCC(=O)N1CCC[C@H]1C(=O)N[C@@H](CC1CCCCC1)C(=O)N1CCC[C@H]1C(=O)N[C@@H](Cc1ccc(Cl)cc1)C(=O)O [Compound in Ex. 68, Arg-Pro-Arg-Leu-Ser-Dap(Adi)-Arg-Gly-Pro-Cha-Pro-Phe(Cl)] (H-RPRLS[Dap](Adipoyl)RGP[Cha]P[Phe(4-Cl)]-OH; N-terminus and C-terminus assumed)
